# Assay results reported in ChEMBL document CHEMBL3885861, “Open TG-GATES”.
# Organism: Rattus norvegicus
# Experiment: Open TG-GATES - Regimen: Single
# Assay type: toxicity, organism-based, Sprague-Dawley
# Set-up: regimen Single, gender Male, age 6 weeks
# Settings: in vivo, po, 0 mg/kg, route gavage, dose level Control; for APTT / Bas / Eos / Fbg / Hb / Ht / Lym / MCH / MCHC / MCV / Mono / Neu / PT / Plat / RBC / Ret / WBC: tissue Blood; for KIDNEY_L / KIDNEY_R / KIDNEY_TOTAL: tissue Kidney; for LIVER: tissue Liver; for A/G / ALP / ALT / AST / BUN / CRE / Ca / Cl / DBIL / GLC / IP / K / LDH / Na / PL / RALB / TBIL / TC / TG / TP / gamma-GTP: tissue Plasma
compound,measurement,setting,value
CC(S)C(=O)NCC(=O)O (stereo unspecified) [TIOPRONIN],TERMINAL_BW,9 h,209.7 g
same,APTT,9 h,22.9 s
same,Bas,9 h,0%
same,Eos,9 h,0.8%
same,Fbg,9 h,294.2 mg/dL
same,Hb,9 h,12.7 g/dL
same,Ht,9 h,39.4%
same,Lym,9 h,81.6%
same,MCH,9 h,19.9 pg
same,MCHC,9 h,32.1%
same,MCV,9 h,61.7 fL
same,Mono,9 h,2%
same,Neu,9 h,15.2%
same,PT,9 h,16.2 s
same,Plat,9 h,121.4 x10_4/uL
same,RBC,9 h,639.2 x10_4/ul
same,Ret,9 h,8.3%
same,WBC,9 h,95.7 x10_2/uL
same,KIDNEY_L,9 h,0.9 g
same,KIDNEY_R,9 h,0.9 g
same,KIDNEY_TOTAL,9 h,1.9 g
same,LIVER,9 h,9.1 g
same,A/G,9 h,1.1
same,ALP,9 h,1667.4 IU/L
same,ALT,9 h,36.2 IU/L
same,AST,9 h,65.8 IU/L
same,BUN,9 h,12.2 mg/dL
same,CRE,9 h,0.1 mg/dL
same,Ca,9 h,10.5 mg/dL
same,Cl,9 h,105 meq/L
same,DBIL,9 h,0 mg/dL
same,GLC,9 h,195.8 mg/dL
same,IP,9 h,9.8 mg/dL
same,K,9 h,4.5 meq/L
same,LDH,9 h,147 IU/L
same,Na,9 h,143.8 meq/L
same,PL,9 h,120.2 mg/dL
same,RALB,9 h,2.8 g/dL
same,TBIL,9 h,0.012 mg/dL
same,TC,9 h,64.8 mg/dL
same,TG,9 h,64.2 mg/dL
same,TP,9 h,5.3 g/dL
same,gamma-GTP,9 h,1.4 IU/L
same,TERMINAL_BW,24 h,219.9 g
same,APTT,24 h,21.2 s
same,Bas,24 h,0%
same,Eos,24 h,1%
same,Fbg,24 h,307 mg/dL
same,Hb,24 h,12.9 g/dL
same,Ht,24 h,39.6%
same,Lym,24 h,77.8%
same,MCH,24 h,21.2 pg
same,MCHC,24 h,32.7%
same,MCV,24 h,64.7 fL
same,Mono,24 h,3%
same,Neu,24 h,17.4%
same,PT,24 h,16.4 s
same,Plat,24 h,115.1 x10_4/uL
same,RBC,24 h,612 x10_4/ul
same,Ret,24 h,7.6%
same,WBC,24 h,103.4 x10_2/uL
same,KIDNEY_L,24 h,1 g
same,KIDNEY_R,24 h,1 g
same,KIDNEY_TOTAL,24 h,2 g
same,LIVER,24 h,10.1 g
same,A/G,24 h,1.1
same,ALP,24 h,1636.2 IU/L
same,ALT,24 h,44 IU/L
same,AST,24 h,74.2 IU/L
same,BUN,24 h,16.6 mg/dL
same,CRE,24 h,0.2 mg/dL
same,Ca,24 h,10.7 mg/dL
same,Cl,24 h,105.6 meq/L
same,DBIL,24 h,0 mg/dL
same,GLC,24 h,196.4 mg/dL
same,IP,24 h,7.1 mg/dL
same,K,24 h,4.4 meq/L
same,LDH,24 h,179.8 IU/L
same,Na,24 h,142 meq/L
same,PL,24 h,135.2 mg/dL
same,RALB,24 h,2.8 g/dL
same,TBIL,24 h,0.004 mg/dL
same,TC,24 h,75.2 mg/dL
same,TG,24 h,76.8 mg/dL
same,TP,24 h,5.4 g/dL
same,gamma-GTP,24 h,1.4 IU/L
